Data as given in US20210323985A1, “SHIELDING AGENTS AND THEIR USE” (ENDOCYTE, INC., priority 2018, published 2021).

Experiments:
[1] = system: LNCaP tumors; assay: Biodistribution of Ia-Lu with or without co-administered shielding agent in nude mice bearing LNCaP tumors; assay type: in vivo; conditions: 4 hours; 30 nmol/kg Ia-Lu; co-administration of 1 μmol/kg shielding agent, vs Ia-Lu alone; FIG. 9
Description: FIG. 9 is a chart showing the biodistribution at 4 hours in nude mice bearing LNCaP tumors at 30 nmol/kg of Ia-Lu with or without co-administration of 1 μmol/kg of a shielding agent. […] In the graph for each tissue Ia-Lu alone (left bar), Ia-Lu+compound 1m (middle bar), Ia-Lu+compound 1d (S-enantiomer) (right bar).
(§1) The shielding agents of the present disclosure were administered in combination with an imaging agent of the disclosure, and the biodistribution was analyzed.

[2] = system: 22RV1 tumors; assay: Biodistribution of 99mTc imaging conjugate 3a co-administered with a shielding agent in nude mice bearing 22RV1 tumors; assay type: in vivo; conditions: 4 hours; 30 nmol/kg 99mTc imaging conjugate 3a; co-administration of 1 μmol/kg shielding agent; FIG. 8
Description: FIG. 8 is a chart showing the biodistribution at 4 hours in nude mice bearing 22RV1 tumors at 30 nmol/kg of ^99mTC imaging conjugate 3a with co-administration of 1 μmol/kg of a shielding agent. […] In the graph for each tissue ^99mTC imaging conjugate 3a+compound 1d (S-enantiomer) (left bar), ^99mTC imaging conjugate 3a+compound 1d (R-enantiomer) (right bar).
as §1

## CCCCCCCCCCCCOC(=O)CC[C@@H](CP(=O)(O)O)C(=O)O [1d (S-enantiomer)]
[1]
  Ia-Lu tumor to kidney ratio: enhanced
[2]
  99mTc imaging conjugate 3a tumor to kidney ratio: enhanced
  activity of shielding agent (comparison of enantiomers): more active than the R-enantiomer

## CCCCOC(=O)CC[C@H](NC(=O)N[C@@H](CCC(=O)O)C(=O)O)C(=O)O [Compound 1m]
[1]
  Ia-Lu tumor to kidney ratio: enhanced
